Test: Moisture adsorption/desorption (DVS), hygroscopicity
Assay type: physicochemical
Protocol: Moisture Adsorption/Desorption data was collected on a DVS-1 (SMS Surface Measurements Systems) moisture balance system. The sorption/desorption isotherms were measured stepwise in a range of 0% RH to 90% RH at 25° C. A weight change of <0.002 mg/min was chosen as the criterion to switch to the next level of relative humidity (with a maximum equilibration time of 6 hours if the weight criterion was not met). The data were corrected for the initial moisture content of the samples so that the weight after drying the sample at 0% relative humidity was taken as the zero point. The hygroscopicity of a given substance was characterized, in accordance with the European Phamacopoeia (Technical Guide 1999), by the increase in mass when the relative humidity is raised from 0% RH to 90% RH, as defined below (where weight increase=x):
Slightly hygroscopic: 0.2%≤x<2.0%
Very hygroscopic: x≥15.0%
Deliquescent: Sufficient liquid as adsorbed to form a liquid

SMILES: Cc1ccccc1-c1cc(N2CCN(C)CC2)ncc1N(C)C(=O)C(C)(C)c1cc(C(F)(F)F)cc(C(F)(F)F)c1 [Amorphous Form, 2-(3,5-bis(trifluoromethyl)phenyl)-N,2-dimethyl-N-(6-(4-methylpiperazin-1-yl)-4-(o-tolyl)pyridin-3-yl)propanamide]
- crystallization during the sorption isotherm measurement: No crystallization could be observed
- Hygroscopicity (weight change 0 to 90%-RH) (25° C., 0% RH to 90% RH): 1.5%
- Hygroscopicity classification (25° C., 0% RH to 90% RH, European Pharmacopoeia classes): slightly hygroscopic
- moisture adsorbed (two cycles): up to 1.5 % w/w

Reference: patent US10676440B2, “Crystalline forms of an NK-1 antagonist” (Helsinn Healthcare SA, priority 2014, dated 2020)
